Experimental data from ChEMBL document CHEMBL1201862, “PubChem BioAssay data set” (2004).
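Dose response: 5 concentrations. Exposure: 48 h. Format: 96-well plates. Endpoint: linear interpolation; highest concentration if not reached. The concentration for 50% growth inhibition is given as GI50.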 Active and inactive are the calls of the source. No stated cut-off is given here; in the data, active = GI50 up to about 1.1 µM and inactive = higher.

Legend:
Test in all cases: NCI anticancer screen, dose series, 48 h
[1] = tested on: UO-31
[2] = tested on: SNB-75
[3] = tested on: K562
[4] = tested on: DLD-1
[5] = tested on: DMS-114
[6] = tested on: CAKI-1
[7] = tested on: KM12
[8] = tested on: HOP-92
[9] = tested on: SK-MEL-5
[10] = tested on: OVCAR-8
[11] = tested on: UACC-257
[12] = tested on: DMS-273
[13] = tested on: MOLT-4
[14] = tested on: SK-MEL-2
[15] = tested on: SK-MEL-28
[16] = tested on: OVCAR-3
[17] = tested on: NCI-H23
[18] = tested on: SR
[19] = tested on: SW-620
[20] = tested on: ACHN
[21] = tested on: U-251
[22] = tested on: HOP-18
[23] = tested on: XF498
[24] = tested on: OVCAR-4
[25] = tested on: TK-10
[26] = tested on: HCC 2998
[27] = tested on: EKVX
[28] = tested on: M19-MEL
[29] = tested on: OVCAR-5
[30] = tested on: HCT-116
[31] = tested on: 786-0
[32] = tested on: LXFL 529
[33] = tested on: UACC-62
[34] = tested on: IGROV-1
[35] = tested on: A549
[36] = tested on: SN12C
[37] = tested on: RXF 393
[38] = tested on: A498
[39] = tested on: HOP-62
[40] = tested on: HCT-15
[41] = tested on: SF-295
[42] = tested on: KM-20L2
[43] = tested on: COLO 205
[44] = tested on: RPMI-8226
[45] = tested on: NCI-H522
[46] = tested on: M14
[47] = tested on: RXF 631
[48] = tested on: Malme-3M
[49] = tested on: SK-OV-3
[50] = tested on: NCI-H460
[51] = tested on: SNB-19
[52] = tested on: SNB-78
[53] = tested on: NCI-H226
[54] = tested on: HT-29
[55] = tested on: SF-539
[56] = tested on: SF-268
[57] = tested on: HL-60
[58] = tested on: CCRF-CEM
[59] = tested on: LOX IMVI

CCCCNC(=NC#N)NCCCC
GI50 [1]: > 100 µM (inactive)
GI50 [2]: > 100 µM (inactive)
GI50 [3]: > 100 µM (inactive)
GI50 [4]: > 100 µM (inactive)
GI50 [5]: 55.6 µM (inactive)
GI50 [6]: > 100 µM (inactive)
GI50 [7]: > 100 µM (inactive)
GI50 [8]: > 100 µM (inactive)
GI50 [9]: > 100 µM (inactive)
GI50 [10]: > 100 µM (inactive)
GI50 [11]: > 100 µM (inactive)
GI50 [12]: > 100 µM (inactive)
GI50 [13]: > 100 µM (inactive)
GI50 [14]: > 100 µM (inactive)
GI50 [15]: > 100 µM (inactive)
GI50 [16]: > 100 µM (inactive)
GI50 [17]: > 100 µM (inactive)
GI50 [18]: 78.7 µM (inactive)
GI50 [19]: 21.3 µM (inactive)
GI50 [20]: > 100 µM (inactive)
GI50 [21]: 99.5 µM (inactive)
GI50 [22]: > 100 µM (inactive)
GI50 [23]: > 100 µM (inactive)
GI50 [24]: > 100 µM (inactive)
GI50 [25]: > 100 µM (inactive)
GI50 [26]: > 100 µM (inactive)
GI50 [27]: > 100 µM (inactive)
GI50 [28]: 83.4 µM (inactive)
GI50 [29]: > 100 µM (inactive)
GI50 [30]: > 100 µM (inactive)
GI50 [31]: 49.5 µM (inactive)
GI50 [32]: > 100 µM (inactive)
GI50 [33]: > 100 µM (inactive)
GI50 [34]: > 100 µM (inactive)
GI50 [35]: > 100 µM (inactive)
GI50 [36]: > 100 µM (inactive)
GI50 [37]: 34.5 µM (inactive)
GI50 [38]: > 100 µM (inactive)
GI50 [39]: > 100 µM (inactive)
GI50 [40]: 62.4 µM
GI50 [41]: > 100 µM (inactive)
GI50 [42]: > 100 µM (inactive)
GI50 [43]: 38.2 µM (inactive)
GI50 [44]: > 100 µM (inactive)
GI50 [45]: > 100 µM (inactive)
GI50 [46]: > 100 µM (inactive)
GI50 [47]: > 100 µM (inactive)
GI50 [48]: > 100 µM (inactive)
GI50 [49]: > 100 µM (inactive)
GI50 [50]: > 100 µM (inactive)
GI50 [51]: > 100 µM (inactive)
GI50 [52]: > 100 µM (inactive)
GI50 [53]: > 100 µM (inactive)
GI50 [54]: > 100 µM (inactive)
GI50 [55]: > 100 µM (inactive)
GI50 [56]: > 100 µM (inactive)

O=C1C(c2ccccc2)=C(c2ccccc2)C(c2ccc(-c3ccc(C4=C(c5ccccc5)C(=O)C(c5ccccc5)=C4c4ccccc4)cc3)cc2)=C1c1ccccc1
GI50 [1]: > 100 µM (inactive)
GI50 [2]: 48.1 µM (inactive)
GI50 [3]: > 100 µM (inactive)
GI50 [4]: > 100 µM (inactive)
GI50 [5]: > 100 µM (inactive)
GI50 [6]: > 100 µM (inactive)
GI50 [7]: > 100 µM (inactive)
GI50 [8]: > 100 µM (inactive)
GI50 [9]: > 100 µM (inactive)
GI50 [10]: > 100 µM (inactive)
GI50 [11]: > 100 µM (inactive)
GI50 [12]: > 100 µM (inactive)
GI50 [13]: 77.8 µM (inactive)
GI50 [14]: > 100 µM (inactive)
GI50 [16]: > 100 µM (inactive)
GI50 [17]: > 100 µM (inactive)
GI50 [18]: > 100 µM (inactive)
GI50 [19]: > 100 µM (inactive)
GI50 [21]: > 100 µM (inactive)
GI50 [22]: > 100 µM (inactive)
GI50 [23]: > 100 µM (inactive)
GI50 [57]: > 100 µM (inactive)
GI50 [24]: > 100 µM (inactive)
GI50 [25]: > 100 µM (inactive)
GI50 [27]: > 100 µM (inactive)
GI50 [28]: > 100 µM (inactive)
GI50 [29]: > 100 µM (inactive)
GI50 [30]: > 100 µM (inactive)
GI50 [31]: > 100 µM (inactive)
GI50 [32]: > 100 µM (inactive)
GI50 [33]: > 100 µM (inactive)
GI50 [34]: > 100 µM (inactive)
GI50 [58]: > 100 µM (inactive)
GI50 [35]: > 100 µM (inactive)
GI50 [59]: > 100 µM (inactive)
GI50 [36]: > 100 µM (inactive)
GI50 [37]: > 100 µM (inactive)
GI50 [38]: > 100 µM (inactive)
GI50 [39]: > 100 µM (inactive)
GI50 [40]: > 100 µM
GI50 [41]: > 100 µM (inactive)
GI50 [42]: > 100 µM (inactive)
GI50 [43]: > 100 µM (inactive)
GI50 [44]: 46.9 µM (inactive)
GI50 [45]: > 100 µM (inactive)
GI50 [46]: > 100 µM (inactive)
GI50 [47]: > 100 µM (inactive)
GI50 [48]: > 100 µM (inactive)
GI50 [49]: > 100 µM (inactive)
GI50 [50]: > 100 µM (inactive)
GI50 [51]: > 100 µM (inactive)
GI50 [53]: > 100 µM (inactive)
GI50 [54]: > 100 µM (inactive)
GI50 [55]: > 100 µM (inactive)
GI50 [56]: > 100 µM (inactive)
